Columns and labels:
Type in all cases: in vivo
[1] = test system: ALOMY resistant (Alopecurus myosuroides); assay: Greenhouse trial, PE application on resistant biotypes (test method 8); conditions: resistant biotype, g of AS/ha: (A) 90, (B) 1200, (A)+(B) 90 + 1200
Description: (§1) In the standard design of the test, seeds of various broad-leaved weed and weed grass biotypes (origins) were sown in a 8-13 cm diameter pot filled with natural soil of a standard field soil (loamy silt; non-sterile) and covered with a covering soil layer of about 1 cm. The pots were then cultivated in a greenhouse (12-16 h of light, temperature day 20-22° C., night 15-18° C.) until the time of application. The pots were treated on a laboratory track sprayer with spray liquors comprising the compositions according to the invention, mixtures of the prior art or components used individually. Application of the active compounds or active compound combinations formulated as WG, WP, EC or otherwise was carried out at the appropriate growth stages of the plants. The application rate for the spray application was 100-600 l of water/ha. After the treatment, the plants were returned to the greenhouses.
(§2) About 3 weeks after the application, the soil action or/and foliar action was assessed visually according to a scale of 0-100% in comparison to an untreated comparative group: 0%=no noticeable effect compared to the untreated comparative group; 100%=full effect compared to the untreated comparative group.
(§3) (notes: the term “seeds” also includes vegetative propagation forms such as, for example, rhizome pieces; abbreviations used: h light=hours of illumination, g of AS/ha=gram of active substance per hectare, l/ha=liter per hectare, S=sensitive, R=resistant) • 1. Pre-emergence action against weeds: seeds of various broad-leaved weed and weed grass biotypes (origins) were sown in a 8-13 cm diameter pot filled with natural soil of a standard field soil (loamy silt; non-sterile) and covered with a covering soil layer of about 1 cm. The pots were then cultivated in a greenhouse (12-16 h of light, temperature day 20-22° C., night 15-18° C.) until the time of application. The pots were treated at the BBCH stage 00-10 of the seeds/plants on a laboratory track sprayer with spray liquors comprising the compositions according to the invention, mixtures or components used individually, as WG, WP, EC or other formulations. The application rate for the spray application was 100-600 l of water/ha. After the treatment, the plants were returned to the greenhouses and, when required, treated with fertilizer and watered. • 2. Post-emergence action against weeds: seeds of various broad-leaved weed and weed grass biotypes (origins) were sown in a 8-13 cm diameter pot filled with natural soil of a standard field soil (loamy silt; non-sterile) and covered with a covering soil layer of about 1 cm. The pots were then cultivated in a greenhouse (12-16 h of light, temperature day 20-22° C., night 15-18° C.) until the time of application. The pots were treated at various BBCH stages between 11-25 of the seeds/plants, i.e. generally between two to three weeks after the start of the cultivation, on a laboratory track sprayer with spray liquors comprising the compositions according to the invention, mixtures or components used individually, as WG, WP, EC or other formulations. The application rate for the spray application was 100-600 l of water/ha. After the treatment, the plants were returned to the greenhouses and, when required, treated with fertilizer and watered. • 3. Selective pre-emergence action: seeds of various crop species (origins) were sown in a 8-13 cm diameter pot filled with natural soil of a standard field soil (loamy silt; non-sterile) and covered with a covering soil layer of about 1 cm. The pots were then cultivated in a greenhouse (12-16 h of light, temperature day 20-22° C., night 15-18° C.) until the time of application. The pots were treated at the BBCH stage 00-10 of the seeds/plants on a laboratory track sprayer with spray liquors comprising the compositions according to the invention, mixtures or components used individually, as WG, WP, EC or other formulations. The application rate for the spray application was 100-600 l of water/ha. […]

[2] = test system: MATCH sensitive (Matricaria chamomilla); assay: as above; conditions: sensitive biotype, g of AS/ha: (A) 90, (B) 1200, (A)+(B) 90 + 1200, (C) 10
Description: as §1, §2, §3

[3] = test system: TRZAS = Triticum aestivum, summer wheat; assay: Greenhouse trial, activity with different soil types (test method 7); conditions: g of AS/ha: (A) 120, (B) 1200, (A)+(B) 120 + 1200
Description: as §1, §2, §3

STEME = Stellaria media = assay: as above; conditions: g of AS/ha: (A) 120, (B) 1200, (A)+(B) 120 + 1200
Description: as §1, §2, §3

[4] = test system: MATCH = Matricaria chamomilla; assay: Greenhouse trial, PE application with different irrigation variations (test method 6); conditions: g of AS/ha: (A) 120, (B) 1200, (A)+(B) 120 + 1200
Description: as §1, §2, §3

AVEFA = Avena fatua [5] = assay: as above; conditions: g of AS/ha: (A) 120, (B) 1200, (A)+(B) 120 + 1200
Description: as §1, §2, §3

[6] = test system: TRZAW = Triticum aestivum, winter wheat; assay: as above; conditions: g of AS/ha: (A) 120, (B) 1200, (A)+(B) 120 + 1200
Description: as §1, §2, §3

[7] = test system: MATCH = Matricaria chamomilla; assay: Greenhouse trial, pre-sowing application 7 days prior to sowing (test method 5); conditions: g of AS/ha: (A) 90, (B) 1200, (A)+(B) 90 + 1200
Description: as §1, §2
(§4) (notes: the term “seeds” also includes vegetative propagation forms such as, for example, rhizome pieces; abbreviations used: h light=hours of illumination, g of AS/ha=gram of active substance per hectare, l/ha=liter per hectare, S=sensitive, R=resistant) • 1. Pre-emergence action against weeds: seeds of various broad-leaved weed and weed grass biotypes (origins) were sown in a 8-13 cm diameter pot filled with natural soil of a standard field soil (loamy silt; non-sterile) and covered with a covering soil layer of about 1 cm. The pots were then cultivated in a greenhouse (12-16 h of light, temperature day 20-22° C., night 15-18° C.) until the time of application. The pots were treated at the BBCH stage 00-10 of the seeds/plants on a laboratory track sprayer with spray liquors comprising the compositions according to the invention, mixtures or components used individually, as WG, WP, EC or other formulations. The application rate for the spray application was 100-600 l of water/ha. After the treatment, the plants were returned to the greenhouses and, when required, treated with fertilizer and watered. • 2. Post-emergence action against weeds: seeds of various broad-leaved weed and weed grass biotypes (origins) were sown in a 8-13 cm diameter pot filled with natural soil of a standard field soil (loamy silt; non-sterile) and covered with a covering soil layer of about 1 cm. The pots were then cultivated in a greenhouse (12-16 h of light, temperature day 20-22° C., night 15-18° C.) until the time of application. The pots were treated at various BBCH stages between 11-25 of the seeds/plants, i.e. generally between two to three weeks after the start of the cultivation, on a laboratory track sprayer with spray liquors comprising the compositions according to the invention, mixtures or components used individually, as WG, WP, EC or other formulations. The application rate for the spray application was 100-600 l of water/ha. After the treatment, the plants were returned to the greenhouses and, when required, treated with fertilizer and watered. • 3. […]

AVEFA = Avena fatua [8] = assay: as above; conditions: g of AS/ha: (A) 90, (B) 1200, (A)+(B) 90 + 1200
Description: as §1, §2, §4

[9] = test system: HORVW = Hordeum vulgare, winter barley; assay: as above; conditions: g of AS/ha: (A) 90, (B) 1200, (A)+(B) 90 + 1200
Description: as §1, §2, §4

In the case of CCC(CC)Nc1c([N+](=O)[O-])cc(C)c(C)c1[N+](=O)[O-] [(B) pendimethalin, N-(1-ethylpropyl)-3,4-dimethyl-2,6-dinitrobenzenamine], the “activity ALOMY resistant (visual assessment, scale 0-100% vs untreated)” value [1] is reported as 40%, the “activity MATCH sensitive (visual assessment, scale 0-100% vs untreated)” value [2] is reported as 10% and the “activity on crop plant TRZAS IU soil (visual assessment, scale 0-100% vs untreated)” value ([3]; IU soil) is reported as 5%. For the same compound, the “Difference of the soil types Δ^D, TRZAS” value ([3]; IU/EC73 soil versus IU soil, crop plant) was “Δ^D −5%”, the “activity on crop plant TRZAS IU/EC73 soil (visual assessment, scale 0-100% vs untreated)” value ([3]; IU/EC73 soil) was 0% and the “activity STEME IU soil (visual assessment, scale 0-100% vs untreated)” value (STEME = Stellaria media; IU soil (loamy silt, standard field soil)) was 85%. The “activity STEME IU/EC73 soil (visual assessment, scale 0-100% vs untreated)” value (STEME = Stellaria media; IU/EC73 soil (heavier soil, higher organic substance)) was 55%, the “Difference of the soil types Δ^D, STEME” value (STEME = Stellaria media; IU/EC73 soil versus IU soil) was “Δ^D −30%” and the “activity MATCH (visual assessment, scale 0-100% vs untreated)” value ([4]; irrigation from above) was 30%. For the same compound, the “activity MATCH (visual assessment, scale 0-100% vs untreated)” value ([4]; irrigation from below) was 18%, the “activity AVEFA (visual assessment, scale 0-100% vs untreated)” value (AVEFA = Avena fatua [5]; irrigation from above) was 5% and the “activity AVEFA (visual assessment, scale 0-100% vs untreated)” value (AVEFA = Avena fatua [5]; irrigation from below) was 10%. The “activity on crop plant TRZAW (visual assessment, scale 0-100% vs untreated)” value ([6]; irrigation from above) was 20%, the “activity on crop plant TRZAW (visual assessment, scale 0-100% vs untreated)” value ([6]; irrigation from below) was 5% and the “activity MATCH (visual assessment, scale 0-100% vs untreated)” value [7] was 0%. The “activity AVEFA (visual assessment, scale 0-100% vs untreated)” value (AVEFA = Avena fatua [8]) was 70% and the “activity on crop plant HORVW (visual assessment, scale 0-100% vs untreated)” value [9] was 40%.

Reference: patent publication US20110152094A1, “Herbicidal compositions comprising flufenacet” (Bayer CropScience AG, priority 2009, published 2011)
